Measured values as given in article PMC10150354, “Linearization of the Brevicidine and Laterocidine Lipopeptides Yields Analogues That Retain Full Antibacterial Activity” (Journal of Medicinal Chemistry, 2023).
In brackets after ≈: the same amount, converted by molar mass. Where a SMILES comes first, the peptide text is derived from it. Bridges are numbered along the chain shown (N, C = ends). [ ]: non-standard residue; d: D form. The star is where a group is joined. ξ: configuration not given here. Octanoyl(7-Me) = CC(C)CCCCCC(=O)*; Hexanoyl(4ξ-Me) = CCC(C)CCC(=O)*; dOrn = NCCC[C@@H](N)C(=O)O; Orn = NCCC[C@H](N)C(=O)O

How the values were obtained:
[1] = test system: K. pneumoniae ATCC 13883; type: cell-based, Klebsiella pneumoniae; conditions: microbroth dilution per CLSI, MHB, 18 h at 37 °C, visual inspection, three technical replicates
How it was run: (§1)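 MIC taken as the lowest concentration with no visible growth after 18 h, 37 °C, shaking, three technical replicates. Peptides were serially diluted in MHB and received cells from TSB cultures at OD600 ~0.5, diluted to 2 × 10^5 CFU/mL (kanamycin selection for the mcr-1 E. coli), following CLSI guidelines.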

[2] = test system: P. aeruginosa PAO1; type: cell-based, Pseudomonas aeruginosa; conditions: microbroth dilution per CLSI, MHB, 18 h at 37 °C, visual inspection, three technical replicates
How it was run: as §1

[3] = test system: E. coli (MCR-1); type: cell-based, Escherichia coli; conditions: microbroth dilution per CLSI, MHB, 18 h at 37 °C, visual inspection, three technical replicates, E. coli 25922 carrying mcr-1
How it was run: as §1

[4] = test system: E. coli ATCC 25922; type: cell-based, Escherichia coli; conditions: for MIC (µg/mL) against E. coli (ATCC 25922): (Supplement 2); for Antibacterial activity (MIC) E. coli ATCC 25922: microbroth dilution per CLSI, MHB, 18 h at 37 °C, visual inspection, three technical replicates
How it was run: as §1

[5] = test system: S. aureus USA300; type: cell-based, Staphylococcus aureus; conditions: microbroth dilution per CLSI, MHB, 18 h at 37 °C, visual inspection, three technical replicates
How it was run: as §1

[6] = test system: A. baumannii ATCC 17961; type: cell-based, Acinetobacter baumannii; conditions: microbroth dilution per CLSI, MHB, 18 h at 37 °C, visual inspection, three technical replicates
How it was run: as §1

Structure (SMILES) | Antibacterial activity (MIC) K. pneumoniae ATCC 13883 [1] [mg/L] | Antibacterial activity (MIC) P. aeruginosa PAO1 [2] [mg/L] | Antibacterial activity (MIC) E. coli (MCR-1) [3] [mg/L] | MIC (µg/mL) against E. coli (ATCC 25922) [4] [µg/mL] | Antibacterial activity (MIC) E. coli ATCC 25922 [4] [mg/L] | Antibacterial activity (MIC) S. aureus USA300 [5] [mg/L] | Antibacterial activity (MIC) A. baumannii ATCC 17961 [6] [mg/L]
CC[C@H](C)[C@H](NC(=O)[C@H](Cc1ccccc1)NC(=O)[C@H](Cc1c[nH]c2ccccc12)NC(=O)[C@@H](CCCN)NC(=O)CNC(=O)[C@H](CCCN)NC(=O)[C@@H](CCCN)NC(=O)[C@@H](Cc1c[nH]c2ccccc12)NC(=O)[C@@H](Cc1ccc(O)cc1)NC(=O)[C@@H](CO)NC(=O)CCCCCC(C)C)C(=O)N[C@@H](CC(N)=O)C(=O)NCC(=O)NCC(N)=O [LL(Phe9)-NH2 (43)] ({Octanoyl(7-Me)}-[dS][dY][dW][dOrn][Orn]G[dOrn]WFINGG-NH2) | 8 | 8 | 4 | 4 (≈ 2.4 µM) | 4 | >32 | 4
CC[C@H](C)[C@H](NC(=O)[C@H](CO)NC(=O)[C@H](Cc1c[nH]c2ccccc12)NC(=O)[C@@H](CCCN)NC(=O)CNC(=O)[C@H](CCCN)NC(=O)[C@@H](CCCN)NC(=O)[C@@H](Cc1c[nH]c2ccccc12)NC(=O)[C@@H](Cc1ccc(O)cc1)NC(=O)[C@@H](CO)NC(=O)CCCCCC(C)C)C(=O)N[C@@H](CC(N)=O)C(=O)NCC(=O)NCC(N)=O [LL(Ser9)-NH2 (46)] ({Octanoyl(7-Me)}-[dS][dY][dW][dOrn][Orn]G[dOrn]WSINGG-NH2) | 4 | 4 | 8 | 4 (≈ 2.49 µM) | 4 | >32 | 8
CC[C@H](C)[C@H](NC(=O)[C@H](Cc1c[nH]c2ccccc12)NC(=O)[C@H](Cc1c[nH]c2ccccc12)NC(=O)[C@@H](CCCN)NC(=O)CNC(=O)[C@H](CCCN)NC(=O)[C@@H](CCCN)NC(=O)[C@@H](Cc1c[nH]c2ccccc12)NC(=O)[C@@H](Cc1ccc(O)cc1)NC(=O)[C@@H](CO)NC(=O)CCCCCC(C)C)C(=O)N[C@@H](CC(N)=O)C(=O)NCC(=O)NCC(N)=O [LL(Trp9)-NH2 (45)] ({Octanoyl(7-Me)}-[dS][dY][dW][dOrn][Orn]G[dOrn]WWINGG-NH2) | 4 | 16 | 4 | 4 (≈ 2.34 µM) | 4 | >32 | 4
CC[C@H](C)[C@H](NC(=O)[C@@H](NC(=O)[C@H](Cc1c[nH]c2ccccc12)NC(=O)[C@@H](CCCN)NC(=O)CNC(=O)[C@H](CCCN)NC(=O)[C@@H](CCCN)NC(=O)[C@@H](Cc1c[nH]c2ccccc12)NC(=O)[C@@H](Cc1ccc(O)cc1)NC(=O)[C@@H](CO)NC(=O)CCCCCC(C)C)[C@@H](C)O)C(=O)N[C@@H](CC(N)=O)C(=O)NCC(=O)NCC(=O)O [LL-OH (4)] ({Octanoyl(7-Me)}-[dS][dY][dW][dOrn][Orn]G[dOrn]WTINGG-OH) | 8 to 16 | 8 | 16 | – | 8 | >32 | 16
CC[C@H](C)[C@@H]1NC(=O)[C@@H](NC(=O)[C@H](Cc2c[nH]c3ccccc23)NC(=O)[C@@H](CCCN)NC(=O)CNC(=O)[C@H](CCCN)NC(=O)[C@@H](CCCN)NC(=O)[C@@H](Cc2c[nH]c3ccccc23)NC(=O)[C@@H](Cc2ccc(O)cc2)NC(=O)[C@@H](CO)NC(=O)CCCCCC(C)C)[C@@H](C)OC(=O)CNC(=O)CNC(=O)[C@H](CC(N)=O)NC1=O [Lat (2), laterocidine] ({Octanoyl(7-Me)}-[dS][dY][dW][dOrn][Orn]G[dOrn]WTINGG; ester 9-C) | 2 to 4 | 4 | 2 | – | 2 | >32 | 2
CCC(C)CCC(=O)N[C@H](CC(N)=O)C(=O)N[C@H](Cc1ccc(O)cc1)C(=O)N[C@H](Cc1c[nH]c2ccccc12)C(=O)N[C@H](CCCN)C(=O)N[C@@H](CCCN)C(=O)NCC(=O)N[C@H](CCCN)C(=O)N[C@@H](Cc1c[nH]c2ccccc12)C(N)=O (stereo partly drawn) [Δ9–12LB-NH2 (15)] ({Hexanoyl(4ξ-Me)}-[dN][dY][dW][dOrn][Orn]G[dOrn]W-NH2) | >32 | >32 | >32 | – | >32 | >32 | >32
CC(C)CCCCCC(=O)N[C@H](CO)C(=O)N[C@H](Cc1ccc(O)cc1)C(=O)N[C@H](Cc1c[nH]c2ccccc12)C(=O)N[C@H](CCCN)C(=O)N[C@@H](CCCN)C(=O)NCC(=O)N[C@H](CCCN)C(=O)N[C@@H](Cc1c[nH]c2ccccc12)C(N)=O [Δ9–13LL-NH2 (16)] ({Octanoyl(7-Me)}-[dS][dY][dW][dOrn][Orn]G[dOrn]W-NH2) | >32 | >32 | >32 | – | >32 | >32 | 32
CCC(C)CCC(=O)N[C@H](CC(N)=O)C(=O)N[C@H](Cc1ccc(O)cc1)C(=O)N[C@H](Cc1c[nH]c2ccccc12)C(=O)N[C@H](CCCN)C(=O)N[C@@H](CCCN)C(=O)NCC(=O)N[C@H](CCCN)C(=O)N[C@@H](Cc1c[nH]c2ccccc12)C(=O)N[C@H](C(N)=O)[C@@H](C)O (stereo partly drawn) [Δ10–12LB-NH2 (13)] ({Hexanoyl(4ξ-Me)}-[dN][dY][dW][dOrn][Orn]G[dOrn]WT-NH2) | >32 | >32 | >32 | – | >32 | >32 | >32
CC(C)CCCCCC(=O)N[C@H](CO)C(=O)N[C@H](Cc1ccc(O)cc1)C(=O)N[C@H](Cc1c[nH]c2ccccc12)C(=O)N[C@H](CCCN)C(=O)N[C@@H](CCCN)C(=O)NCC(=O)N[C@H](CCCN)C(=O)N[C@@H](Cc1c[nH]c2ccccc12)C(=O)N[C@H](C(N)=O)[C@@H](C)O [Δ10–13LL-NH2 (14)] ({Octanoyl(7-Me)}-[dS][dY][dW][dOrn][Orn]G[dOrn]WT-NH2) | >32 | >32 | 32 | – | >32 | >32 | 32
